Data as given in US20140135357A1, “DOSE REGIME FOR CAMPTOTHECIN DERIVATIVES” (Taiwan Liposome Company, Ltd., priority 2012, published 2014).
“Also recorded” adds a separate entry of the source. Like-named read-outs stand apart in the source and are kept apart here.

What was measured:
[1] = in-vitro study of anti-proliferative activity; type: cell-based
topoisomerase I = biological target: T1, topoisomerase I (Homo sapiens, UniProt P11387); test: Topoisomerase I inhibition; type: biochemical
T1 sequence (P11387 1-765): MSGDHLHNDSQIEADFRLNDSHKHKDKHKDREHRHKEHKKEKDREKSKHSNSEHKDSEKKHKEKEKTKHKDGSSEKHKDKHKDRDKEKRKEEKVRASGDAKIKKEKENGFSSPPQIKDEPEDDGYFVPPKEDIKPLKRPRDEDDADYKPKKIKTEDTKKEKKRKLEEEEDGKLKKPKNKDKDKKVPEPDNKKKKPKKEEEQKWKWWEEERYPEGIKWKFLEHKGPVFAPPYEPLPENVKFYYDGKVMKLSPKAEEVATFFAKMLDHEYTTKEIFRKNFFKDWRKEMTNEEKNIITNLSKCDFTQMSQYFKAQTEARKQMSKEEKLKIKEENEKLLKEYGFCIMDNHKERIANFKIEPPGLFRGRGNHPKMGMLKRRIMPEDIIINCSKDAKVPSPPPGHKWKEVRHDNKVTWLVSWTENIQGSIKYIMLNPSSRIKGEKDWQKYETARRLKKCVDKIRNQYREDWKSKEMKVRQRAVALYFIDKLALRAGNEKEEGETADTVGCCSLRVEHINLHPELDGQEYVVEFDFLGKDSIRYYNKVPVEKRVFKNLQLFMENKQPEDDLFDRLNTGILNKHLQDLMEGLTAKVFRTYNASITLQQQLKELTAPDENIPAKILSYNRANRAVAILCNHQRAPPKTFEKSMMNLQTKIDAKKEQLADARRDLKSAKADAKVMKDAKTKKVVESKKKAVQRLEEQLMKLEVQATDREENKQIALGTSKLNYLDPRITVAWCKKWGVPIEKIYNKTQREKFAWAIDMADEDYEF

[2] = human, in vivo
Procedure: (§1) A non-randomized phase I clinical trial was conducted at 4 institutions in the US and Taiwan.
(§2) Patients were included in this trial if they are over the age of 18, with advanced cancer and the ECOG performance status is 0 or 1. […] Patients were excluded from the study if they have previously received more than 3 regimens of chemotherapy, or if they have received chemotherapy or radiotherapy within 4 weeks of the trial recruitment.
(§3) Eligible patients were given the pharmaceutical composition of the present invention, comprising a mixture of TLC388HCl and mPEG2000-DSPE in a molar ratio of 1:0.7 to 1:0.9 (known as Lipotecan®). […] The pharmaceutical composition was administered as a 30-min IV infusion, on days 1, 8, and 15 of a 28-day cycle (i.e. 3 IV infusions per 28-day cycle).
(§4) Serum samples were collected from the patients for pharmacokinetic analysis on day 1, day 8 and day 15 of Cycles 1 and 2, at the following times:
(§5) Post IV infusion: (Day 1 and 8 of Cycle 1): 33 min; 40 min; 50 min; 1 h; 1 h 30 min; 2 h; 4 h and 8 h. Post IV infusion (Day 15 of Cycle 1 and Day 1, 8, and 15 of Cycle 2): 4 h. Patients were assessed every 8 weeks, after 2 cycles of treatments.
(§6) During the 2-cycle study period, the patients were examined regularly for the following outcomes: • Side effect/DLT; • The pK profiles of the (S,S) and (S,R) diastereomers of TLC388HCl, its 3 metabolites (TLC-U1, TLC-U2 and Topotecan) on day 1 and day 8 of the treatment cycle; and • Anti-cancer efficacy.

clinical = conditions: human, in vivo
Procedure: as §1, §2, §3, §4, §5, §6

topoisomerase I inhibition (topoisomerase I): weak topoisomerase I Inhibitors | Dose-normalized AUClast [2]: 4.05 ± 1.34 nM*h/(mg/m^2) | Dose-normalized Cmax [2]: 2.84 ± 0.97 nM/(mg/m^2) | difference between PK profiles on Day 1 and Day 8 [2]: no significant difference | dose proportionality of exposure [2]: roughly dose proportional | AUC0-t ([2]; 1.5 mg/m2): 2.872 (0.882) hr · ng/mL | Cmax ([2]; 1.5 mg/m2): 2.117 (0.468) ng/mL | Tmax ([2]; 1.5 mg/m2): 0.505 (0.039) hr | t1/2 ([2]; 1.5 mg/m2): 1.953 (0.698) hr | AUC0-t ([2]; 3 mg/m2): 5.625 (1.972) hr · ng/mL | AUC0-t ([2]; 6 mg/m2): 11.599 (1.437) hr · ng/mL | AUC0-t ([2]; 9 mg/m2): 16.581 (3.976) hr · ng/mL | AUC0-t ([2]; 20 mg/m2): 29.023 (7.443) hr · ng/mL | AUC0-t ([2]; 30 mg/m2): 78.761 (50.88) hr · ng/mL | AUC0-t ([2]; 35 mg/m2): 102.97 (20.18) hr · ng/mL | Cmax ([2]; 35 mg/m2): 74.800 (42.82) ng/mL | Tmax ([2]; 35 mg/m2): 0.592 (0.091) hr | t1/2 ([2]; 35 mg/m2): 3.347 (1.219) hr | AUC0-t ([2]; 40 mg/m2): 72.758 (49.22) hr · ng/mL | AUC0-t ([2]; 50 mg/m2): 97.314 (38.34) hr · ng/mL | AUC0-t ([2]; 60 mg/m2): 109.80 (25.72) hr · ng/mL | time at which peak plasma concentrations (Cmax) were achieved ([2]; iv): within one hour | time of rapid rise of the metabolites in the serum after starting the infusion ([2]; iv): ≤ 15 min | AUC0-t (clinical; 1.5 mg/m2, AUC0-t): 0.00374 µg·h/mL | Cmax (clinical; 1.5 mg/m2, Cmax): 0.00334 µg/mL | Tmax (clinical; 1.5 mg/m2, Tmax): 37.7 min | half-life (clinical; 1.5 mg/m2, t1/2): 138 min | AUC0-t (clinical; 3 mg/m2, AUC0-t): 0.00791 µg·h/mL | Cmax (clinical; 3 mg/m2, Cmax): 0.00514 µg/mL | Tmax (clinical; 3 mg/m2, Tmax): 28 min | half-life (clinical; 3 mg/m2, t1/2): 140 min | AUC0-t (clinical; 6 mg/m2, AUC0-t): 0.0116 µg·h/mL | Cmax (clinical; 6 mg/m2, Cmax): 0.00752 µg/mL | Tmax (clinical; 6 mg/m2, Tmax): 28 min | half-life (clinical; 6 mg/m2, t1/2): 148 min | AUC0-t (clinical; 9 mg/m2, AUC0-t): 0.0155 µg·h/mL | Cmax (clinical; 9 mg/m2, Cmax): 0.0115 µg/mL | Tmax (clinical; 9 mg/m2, Tmax): 30.2 min | half-life (clinical; 9 mg/m2, t1/2): 195 min | AUC0-t (clinical; 13.5 mg/m2): 0.0291 µg·h/mL | Cmax (clinical; 13.5 mg/m2): 0.0181 µg/mL | Tmax (clinical; 13.5 mg/m2): 22 min | half-life (clinical; 13.5 mg/m2): 147 min | AUC0-t (clinical; 20 mg/m2, AUC0-t): 0.0336 µg·h/mL | Cmax (clinical; 20 mg/m2, Cmax): 0.0286 µg/mL | Tmax (clinical; 20 mg/m2, Tmax): 29 min | half-life (clinical; 20 mg/m2, t1/2): 149 min | AUC0-t (clinical; 30 mg/m2, AUC0-t): 0.0495 µg·h/mL | Tmax (clinical; 30 mg/m2, Tmax): 25.5 min | half-life (clinical; 30 mg/m2, t1/2): 139 min | AUC0-t (clinical; 35 mg/m2, AUC0-t): 0.0882 µg·h/mL | Cmax (clinical; 35 mg/m2, Cmax): 0.0485 µg/mL | Tmax (clinical; 35 mg/m2, Tmax): 36.5 min | half-life (clinical; 35 mg/m2, t1/2): 188 min | AUC0-t (clinical; 40 mg/m2, AUC0-t): 0.0741 µg·h/mL | Cmax (clinical; 40 mg/m2, Cmax): 0.0525 µg/mL | Tmax (clinical; 40 mg/m2, Tmax): 26.7 min | half-life (clinical; 40 mg/m2, t1/2): 157 min | AUC0-t (clinical; 50 mg/m2, AUC0-t): 0.101 µg·h/mL | Cmax (clinical; 50 mg/m2, Cmax): 0.0657 µg/mL | Tmax (clinical; 50 mg/m2, Tmax): 23.4 min | half-life (clinical; 50 mg/m2, t1/2): 153 min | AUC0-t (clinical; 60 mg/m2, AUC0-t): 0.107 µg·h/mL | Cmax (clinical; 60 mg/m2, Cmax): 0.0874 µg/mL | Tmax (clinical; 60 mg/m2, Tmax): 27 min | half-life (clinical; 60 mg/m2, t1/2): 153 min | Tmax (clinical; 60 mg/m2, tmax): 28.2 ± 8.4 min | half-life (clinical; T1/2): > 150 min | Tmax (clinical; Tmax): < 60 min
SMILES: CC[C@@]1(OC(=O)[C@H](C)O)C(=O)OCc2c1cc1n(c2=O)Cc2cc3c(CN(C)C)c(O)ccc3nc2-1 [TLC-U2, S,S-topotecan lactate]
anti-proliferative activity [1]: comparable to that of TLC 388HCl; also recorded: more potent than that of TLC-U1
